Laboratory results published in US12268739B2, “Use of toll-like receptor 2 (TLR-2) agonist for modulating human immune response” (Children's Medical Center Corporation, priority 2018, dated 2025).
Entries after “also recorded” stand apart in the source; their conditions may differ.

Key:
[1] = test system: NF-κB reporter THP1 cells; assay: NF-kB-induced luminescence HTS in THP1-Lucia cells (384-well); format: cell-based, human; conditions: ranked at 3.3 μM; ~200,000 compounds tested; listed as 080
From the text: HTS Overview: To identify immunomodulators/adjuvants that robustly activate human immune cells, ˜200,000 small molecules were screening in a THP1 cell-based assay. The chemical libraries screened included known bioactive and commercial libraries from various sources including commercial libraries such as ChemDiv, ChemBridge, and Asinex. All libraries were owned and provided by the Institute of Chemistry and Cell Biology (ICCB)—Longwood (Harvard Medical School). The project primary screen incorporated two distinct arms: a) a luciferase-based screen which corresponds to the relative activation of the NF-κB reporter; and b) a fluorescence-based screen, corresponding to the phenotypic adherence, a distinct marker of cell activation, of the human monocytic THP-1 cell lines. Described herein are small molecules identified in the screen that induce NF-kB activity based on a luciferase-based THP-1 cell screen.
THP-1 Cell Line and Culture Conditions. The THP1-Lucia™ cell line was obtained from Invivogen (San Diego, CA). THP1-Lucia cells, which are human monocytic cells derived from the blood of a child with leukemia, contain an NF-kB-inducible Luc reporter construct. This allows NF-kB activation to be measured by quantifying the luminescence from the secreted luciferase enzyme. THP1-Lucia cells were cultured in RPMI 1640 supplemented with 10% non-heat inactivated fetal bovine serum (FBS), 10 mM HEPES, 1.0 mM sodium pyruvate, 50 ug/ml Pen-Strep, and 100 ug/mL Normocin™. Once cultured, the cells were stored in a 37° C. incubator with 5% CO2 and a humidified atmosphere. Cells were passaged every 2-3 days and not allowed to exceed a concentration of 2.0×10^6 cells/ml media.
NF-kB-induced Luminescence Assay. THP1-Lucia cells between passage 15 and 18 and suspended in culture medium were dispensed into 384-well black clear-bottom plates (Corning 3712) at 30,000 cells/30 μl/well using a Combi liquid dispenser. To allow comparison to a benchmark small molecule with known immune stimulating activity, cells at the same concentration were stimulated with 50 μM R848, a TLR7/8 agonist, in 0.3% DMSO and added to every other well of column 24, which was left empty of cells, by multichannel pipette at the same volume. Five μl of 700 nM Phorbol myristate acetate (PMA) in THP1 culture media and 2.3% DMSO, a known peripheral blood cell mitogen, was added to every other well of column 23 by multichannel pipette (final concentration in well: 100 nM in 0.3% DMSO). Five μl of THP1 culture media with 2.3% DMSO was added to the remaining wells of column 23 by multichannel pipette (final concentration 0.3% DMSO). One hundred nl aliquots of library compounds diluted in 100% DMSO were transferred from their original 384-well plates to the assay plates using a Seiko pin transfer machine. Each library plate was pinned in duplicate, yielding two assay plates with identical conditions for comparison. Plates were then incubated for 24 hours at 37 C with 5% CO2 in humid conditions. Following incubation, 10 μL of supernatant was removed from each well and transferred to a white plate (Corning 3570) using a Vprep liquid transfer machine. 10 μL of recombinant Lucia protein (Invivogen) diluted 1:2000 in THP1 culture media was added to empty well 24P. Using a Combi liquid dispenser, 50 μL/well of Quanti-Luc substrate (Invivogen) diluted 1:3 in sterile water was added to the assay plate. Immediately after adding the substrate, the luminescence was read using a PerkinElmer Envision plate reader.

human TLR8 = target: T1, human TLR8 (Homo sapiens, UniProt Q9NR97); assay: HEK293 assay for human TLR8 selectivity (NF-κB/SEAP); format: cell-based; conditions: selectivity counter-assay
T1 construct: host or cells: HEK293 cells with an NF-kB-responsive SEAP reporter gene
T1 sequence (Q9NR97 27-1041): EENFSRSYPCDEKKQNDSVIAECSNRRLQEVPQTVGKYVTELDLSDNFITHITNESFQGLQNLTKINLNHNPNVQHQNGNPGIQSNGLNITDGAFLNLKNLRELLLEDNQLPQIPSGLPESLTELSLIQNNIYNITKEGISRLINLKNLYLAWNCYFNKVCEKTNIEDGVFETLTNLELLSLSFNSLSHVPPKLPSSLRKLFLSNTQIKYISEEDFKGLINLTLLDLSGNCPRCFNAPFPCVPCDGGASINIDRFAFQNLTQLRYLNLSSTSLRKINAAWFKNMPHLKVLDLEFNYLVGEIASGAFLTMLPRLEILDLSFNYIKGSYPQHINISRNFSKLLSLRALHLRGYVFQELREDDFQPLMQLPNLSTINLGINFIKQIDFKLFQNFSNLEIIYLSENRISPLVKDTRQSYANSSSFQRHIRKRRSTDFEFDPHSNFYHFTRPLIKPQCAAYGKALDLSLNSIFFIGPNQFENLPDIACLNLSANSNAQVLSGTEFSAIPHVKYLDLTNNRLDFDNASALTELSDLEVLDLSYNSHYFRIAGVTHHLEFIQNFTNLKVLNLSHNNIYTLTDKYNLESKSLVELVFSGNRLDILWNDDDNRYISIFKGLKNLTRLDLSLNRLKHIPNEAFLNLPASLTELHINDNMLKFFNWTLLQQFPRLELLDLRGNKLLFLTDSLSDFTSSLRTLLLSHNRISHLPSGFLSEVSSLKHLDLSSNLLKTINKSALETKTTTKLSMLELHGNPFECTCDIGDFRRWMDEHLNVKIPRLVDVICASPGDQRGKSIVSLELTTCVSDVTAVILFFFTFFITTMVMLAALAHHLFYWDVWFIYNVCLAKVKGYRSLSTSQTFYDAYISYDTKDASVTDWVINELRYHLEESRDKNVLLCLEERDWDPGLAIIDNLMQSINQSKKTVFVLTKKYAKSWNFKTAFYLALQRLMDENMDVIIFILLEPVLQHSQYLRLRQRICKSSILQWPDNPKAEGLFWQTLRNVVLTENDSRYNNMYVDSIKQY
Description: HEK293 assay for human TLR2 and TLR8 selectivity: Human embryonic kidney (HEK) 293 cells expressing human TLR2 or TLR8 with an NF-κB-responsive secreted embryonic alkaline phosphatase (SEAP) reporter gene were obtained from Invivogen (San Diego, CA). Cells were maintained in RPMI or DMEM with 10% heat inactivated-FBS and selection antibiotics per the manufacturer's instructions. Cells were plated at 5×10^5 cells/96-well and stimulated with indicated agonist(s) for 24 hours. Supernatants were harvested and analyzed for NF-κB/SEAP activation using the QuantiBlue kit (Invivogen). Values are expressed as fold change in OD650 over vehicle-only treated samples.

CNC(=O)c1c(NC(=O)c2ccc(S(=O)(=O)N(C)C)cc2)sc2c1CCC2 [Compound 80]
Efficacy in activating NF-κB in THP1 cells (screening hits) [1]: most effective NF-κB activators; also recorded: most effective NF-kB activators
TLR8 induction in HEK TLR8 cells (SEAP) (human TLR8): without induction of TLR8
